According to patent EP4800018A1, “PAN-KRAS INHIBITOR AND USE THEREOF IN MEDICINES” (Betta Pharmaceuticals Co., Ltd., priority 2023, dated 2025):

Legend:
Format in all cases: cell-based
KRAS G12D-cRAF = target: T1, KRAS G12D-cRAF (Homo sapiens, UniProt P01116, G12D); experiment: Cellular KRAS G12D-cRAF Binding Inhibition Assay (NanoBRET, AD293 stable cells); details: 3 h incubation, read-out: NanoBRET KRAS G12D
T1 construct: expressed in transfected cells
Description: (§1) NanoLuc® luciferase was used as the energy donor, and NanoBRET™ 618 fluorescent ligand labeled with the HaloTag® protein was used as the energy acceptor to detect protein-protein interactions in living cells. AD293 stable cells transfected with KRAS G12D-NanoLuc® luciferase and cRAF RBD-HaloTag® tag protein were seeded in 96-well plates at a cell density of 1×10^4 cells/well. Except for wells with medium added as a blank control, NanoBRET™ 618 fluorescent ligand was added to all other wells, and the plates were cultured overnight in a cell culture incubator. […] The luminescence data were calculated and converted into inhibition percent. The inhibition percent of KRAS G12D-cRAF binding was calculated according to the following formula: Inhibition Percent = (MaxValue−MeasuredValue)/(MaxValue−Blank) × 100% [formula] […] Curve fitting was performed using GraphPad Prism software to obtain IC50 values, see Table 1.

[1] = system: KRAS-G12D mutant tumor cells AGS; experiment: Cell Proliferation Inhibition Assay (AGS), Cell-titer GLO, 96 h; details: Homo sapiens, AGS, 96 h, AGS cells, 96 h incubation, Cell-titer GLO; read-out: AGS(G12D)
Summary of the method: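 AGS cells (KRAS-G12D) grown in low-attachment plates were exposed to compound for 96 h at 37°C. Viability was read by CellTiter-Glo luminescence and converted to % inhibition against max and blank wells. IC50 came from curve fitting.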

KRAS G12V-cRAF = target: T2, KRAS G12V-cRAF (Homo sapiens, UniProt P01116, G12V); experiment: Cellular KRAS G12V-cRAF Binding Inhibition Assay (NanoBRET, AD293 stable cells); details: 3 h incubation, read-out: NanoBRET KRAS G12V
T2 construct: expressed in transfected cells
T2 sequence (P01116 1-188 isoform P01116-2 G12V): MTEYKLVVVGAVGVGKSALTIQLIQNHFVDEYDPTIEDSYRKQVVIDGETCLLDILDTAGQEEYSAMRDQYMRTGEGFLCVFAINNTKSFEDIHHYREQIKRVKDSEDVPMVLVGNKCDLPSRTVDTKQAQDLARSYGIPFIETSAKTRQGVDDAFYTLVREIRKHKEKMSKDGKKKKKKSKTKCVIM
Description: as §1, with “AD293 stable cells transfected with KRAS G12D-NanoLuc® luciferase and cRAF RBD-HaloTag® tag protein were seeded in 96-well plates at a cell density of 1×10^4 cells/well.” left out, “G12V-cRAF” for “G12D-cRAF”

[2] = system: KRAS-G12V mutant tumor cells SW620; experiment: Cell Proliferation Inhibition Assay (SW620), Cell-titer GLO, 96 h; details: Homo sapiens, SW-620, 96 h, SW620 cells, 96 h incubation, Cell-titer GLO; read-out: SW620(G12V)
Summary of the method: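 SW620 cells (1×10^3/well, low-attachment) were exposed to compound from 10000 to 0.03 nM (0.5% DMSO) for 96 h at 37°C. Viability was read by Cell-titer GLO luminescence. Inhibition was calculated relative to DMSO and blank wells, and IC50 obtained by curve fitting.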

T1 sequence (P01116 1-188 isoform P01116-2 G12D): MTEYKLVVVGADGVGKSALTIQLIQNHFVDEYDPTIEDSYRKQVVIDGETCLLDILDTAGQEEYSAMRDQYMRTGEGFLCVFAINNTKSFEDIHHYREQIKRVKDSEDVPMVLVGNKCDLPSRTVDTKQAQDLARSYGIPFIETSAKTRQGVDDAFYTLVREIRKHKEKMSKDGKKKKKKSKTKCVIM

Row | SMILES | IC50 (KRAS G12D-cRAF) | IC50 [1] | IC50 (KRAS G12V-cRAF) | IC50 [2]
1 | CC1OCCCn2c(c3c4cc(ccc42)-c2csc(n2)CC(NC(=O)C2CC2C(F)F)C(=O)N2CCCC(N2)C(=O)OCC(C)(C)C3)-c2cc(N3CCN(C)C(C)C3)cnc21 [Example 138, (1S,2S)-2-(difluoromethyl)-N-((1^5S,6^3S,4S,Z)-1^2-((R)-3,4-dimethylpiperazin-1-yl)-1^5,10,10-trimethyl-5,7-dioxo-1^8,1^9,6^1,6^2,6^3,6^4,6^5,6^6-octahydro-1^5H,1^7H-8-oxa-1(13,15)-pyrido[3',2':7,8][1,5]oxazonino[5,6-a]indola-2(4,2)-thiazola-6(1,3)-pyridazinacycloundecaphane-4-yl)cyclopropane-1-carboxamide] | 3.2 nM | 1.59 nM | 14.7 nM | 0.63 nM
2 | CCN1CCN(c2cnc3c(c2)-c2c4c5cc(ccc5n2CCCOC3C)-c2coc(n2)CC(NC(=O)C2C(C)C2C)C(=O)N2NC(C(=O)OCC(C)(C)C4)C3CC2C3)CC1 [Example 197, (1r,2R,3S)-N-((1^5S,6^4S,4S,Z)-1^2-(4-ethylpiperazin-1-yl)-1^5,10,10-trimethyl-5,7-dioxo-1^8,1^9-dihydro-1^5H,1^7H-8-oxa-6^2,6^3-diaza-1(13,15)-pyrido[3',2':7,8][1,5]oxazonino[5,6-a]indola-2(4,2)-oxazola-6(2,4)-bicyclo[3.1.1]heptanacycloundecaphane-4-yl)-2,3-dimethylcyclopropane-1-carboxamide] | 0.3 nM | 0.03 nM | 2 nM | 0.01 nM
3 | CC1OCCCn2c(c3c4cc(ccc42)-c2csc(n2)CC(NC(=O)C24CC(C)(C2)C4)C(=O)N2CCCC(N2)C(=O)OCC(C)(C)C3)-c2cc(N3CCN(CC(F)F)CC3)cnc21 [Example 98, N-((1^5S,6^3S,4S,Z)-1^2-(4-(2,2-difluoroethyl)piperazin-1-yl)-1^5,10,10-trimethyl-5,7-dioxo-1^8,1^9,6^1, 6^2,6^3,6^4,6^5,6^6-octahydro-1^5H,1^7H-8-oxa-1(13,15)-pyrido[3',2':7,8][1,5]oxazonino[5,6-a]indola-2(4,2)-thiazola-6(1,3)-pyridazinacycloundecaphane-4-yl)-3-methylbicyclo[1.1.1]pentane-1-carbox amide] | 14.8 nM | 13.2 nM | 61.7 nM | 3.87 nM
4 | CC1OCCCn2c(c3c4cc(ccc42)-c2csc(n2)CC(NC(=O)C2CC2C(F)F)C(=O)N2CCCC(N2)C(=O)OCC(C)(C)C3)-c2cc(N3CC4CCC3CN4C)cnc21 [Example 154, (1S,2S)-2-(difluoromethyl)-N-((1^5S,6^3S,4S,Z)-1^5,10,10-trimethyl-1^2-(5-methyl-2,5-diazabicyclo[2.2.2]octan-2-yl)-5,7-dioxo-1^8,1^9,6^1,6^2,6^3,6^4,6^5,6^6-octahydro-1^5H,1^7H-8-oxa-1(13,15)-pyrido[3',2 ':7,8][1,5]oxazonino[5,6-a]indola-2(4,2)-thiazola-6(1,3)-pyridazinacycloundecaphane-4-yl)cyclo propane-1-carboxamide] | 4.2 nM | 1.95 nM | 19.3 nM | 0.91 nM
5 | CC1OCCCn2c(c3c4cc(ccc42)-c2csc(n2)CC(NC(=O)C2CC2C(F)F)C(=O)N2CCCC(N2)C(=O)OCC(C)(C)C3)-c2cc(N3CCN(C)CC3)cnc21 [Example 81, (1S,2S)-2-(difluoromethyl)-N-((1^5S,6^3S,4S,Z)-1^5,10,10-trimethyl-1^2-(4-methylpiperazin-1-yl)-5,7-dioxo-1^8,1^9,6^1,6^2,6^3,6^4,6^5,6^6-octahydro-1^5H,1^7H-8-oxa-1(13,15)-pyrido[3',2':7,8][1,5]oxazonino[5,6-a]indola-2(4,2)-thiazola-6(1,3)-pyridazinacycloundecaphane-4-yl)cyclopropane-1-carboxamide] | 3.14 nM | 0.79 nM | 9.6 nM | 0.11 nM
6 | CC1OCCCn2c(c3c4cc(ccc42)-c2csc(n2)CC(NC(=O)C2CC2C(F)F)C(=O)N2CCCC(N2)C(=O)OCC(C)(C)C3)-c2cc(N3CC(N(C)C)C3)cnc21 [Example 94, (1S,2S)-2-(difluoromethyl)-N-((1^5S,6^3S,4S,Z)-1^2-(3-(dimethylamino)azetidin-1-yl)-1^5,10,10-trimethyl-5,7-dioxo-1^8,1^9,6^1,6^2,6^3,6^4,6^5,6^6-octahydro-1^5H,1^7H-8-oxa-1(13,15)-pyrido[3',2':7,8][1,5]oxazonino[5,6-a]indola-2(4,2)-thiazola-6(1,3)-pyridazinacycloundecaphane-4-yl)cyclopropane-1-carboxamide] | 6.55 nM | 2.68 nM | 22.7 nM | 0.34 nM
7 | CCN1CCN(c2cnc3c(c2)-c2c4c5cc(ccc5n2CCCOC3C)-c2csc(n2)CC(NC(=O)C(C(C)C)N(C)C(=O)N2CCOCC2)C(=O)N2CCCC(N2)C(=O)OCC(C)(C)C4)CC1 [Example 149, N-((2S)-1-(((1^5S,6^3S,4S,Z)-1^2-(4-ethylpiperazin-1-yl)-1^5,10,10-trimethyl-5,7-dioxo-1^8,1^9,6^1,6^2,6^3 ,6^4,6^5,6^6-octahydro-1^5H,1^7H-8-oxa-1(13,15)-pyrido[3',2':7,8][1,5]oxazonino[5,6-a]indola-2(4,2)-thiazola-6(1,3)-pyridazinacycloundecaphane-4-yl)amino)-3-methyl-1-oxobutan-2-yl)-N-methyl morpholine-4-carboxamide] | 3.48 nM | 3.19 nM | 10.9 nM | 1.09 nM
8 | CC1OCCCn2c(c3c4cc(ccc42)-c2csc(n2)CC(NC(=O)C2CC2C(F)F)C(=O)N2CCCC(N2)C(=O)OCC(C)(C)C3)-c2cc(OC3CCN(C)CC3)cnc21 [Example 97, (1S,2S)-2-(difluoromethyl)-N-((1^5S,6^3S,4S,Z)-1^5,10,10-trimethyl-1^2-((1-methylpiperidin-4-yl)oxy)-5,7-dioxo-1^8,1^9,6^1,6^2,6^3,6^4,6^5,6^6-octahydro-1^5H,1^7H-8-oxa-1(13,15)-pyrido[3',2':7,8][1,5]oxazonino[5,6-a]indola-2(4,2)-thiazola-6(1,3)-pyridazinacycloundecaphane-4-yl)cyclopropane-1-carb oxamide] | 11.9 nM | 2.69 nM | 61.8 nM | 0.42 nM
9 | CCN1CCN(c2cnc3c(c2)-c2c4c5cc(ccc5n2CCCOC3C)-c2csc(n2)CC(NC(=O)C23COC(C)(C2)C3)C(=O)N2CCCC(N2)C(=O)OCC(C)(C)C4)CC1 [Example 124, (1S,4r)-N-((1^5S,6^3S,4S,Z)-1^2-(4-ethylpiperazin-1-yl)-1^5,10,10-trimethyl-5,7-dioxo-1^8,1^9,6^1,6^2,6^3, 6^4,6^5,6^6-octahydro-1^5H,1^7H-8-oxa-1(13,15)-pyrido[3',2':7,8][1,5]oxazonino[5,6-a]indola-2(4,2)-thiazola-6(1,3)-pyridazinacycloundecaphane-4-yl)-1-methyl-2-oxabicyclo[2.1.1]hexane-4-carbox amide] | 8.38 nM | 4.67 nM | 18 nM | 1.45 nM
10 | COCCN1CCN(c2cnc3c(c2)-c2c4c5cc(ccc5n2CCCOC3C)-c2csc(n2)CC(NC(=O)C2CC2C(F)F)C(=O)N2CCCC(N2)C(=O)OCC(C)(C)C4)CC1 [Example 101, (1S,2S)-2-(difluoromethyl)-N-((1^5S,6^3S,4S,Z)-1^2-(4-(2-methoxyethyl)piperazin-1-yl)-1^5,10,10-trimethyl-5,7-dioxo-1^8,1^9,6^1,6^2,6^3,6^4,6^5,6^6-octahydro-1^5H,1^7H-8-oxa-1(13,15)-pyrido[3',2':7,8][1,5]oxazonino[5,6-a]indola-2(4,2)-thiazola-6(1,3)-pyridazinacycloundecaphane-4-yl)cyclopropane-1-carboxamide] | 2.74 nM | 1.4 nM | 12 nM | 0.26 nM
11 | CC1OCCCn2c(c3c4cc(ccc42)-c2csc(n2)CC(NC(=O)C2CC2C)C(=O)N2NC(C(=O)OCC(C)(C)C3)C3CC2C3)-c2cc(N3CCN(C)CC3)cnc21 [Example 183, (1S,2S)-2-methyl-N-((1^5S,6^4S,4S,Z)-1^5,10,10-trimethyl-1^2-(4-methylpiperazin-1-yl)-5,7-dioxo-1 ^8,1^9-dihydro-1^5H,1^7H-8-oxa-6^2,6^3-diaza-1(13,15)-pyrido[3',2':7,8][1,5]oxazonino[5,6-a]indola-2(4,2)-thiazola-6(2,4)-bicyclo[3.1.1]heptanacycloundecaphane-4-yl)cyclopropane-1-carboxamide] | 2.7 nM | 2 nM | 17.6 nM | 0.6 nM
